This note sets out measurements from ChEMBL document CHEMBL2069175, “Antiplasmodial activities of 4-aminoquinoline-statine compounds” (Bioorg Med Chem Lett, 2012).

In one series the target is Plasmepsin II (Plasmodium falciparum, UniProt P46925). The experiment in a line: Inhibition of Plasmodium falciparum PLM2 using Lys-Glu-Phe-Val-Phe-NPhe-Ala-Leu-Lys as substrate by spectrophotometry.
The nature of series [1]: Inhibition of Plasmodium falciparum PLM4 using Lys-Glu-Phe-Val-Phe-NPhe-Ala-Leu-Lys as substrate by spectrophotometry.
The nature of series [2]: Inhibition of Plasmodium malariae PLM4 using Lys-Glu-Phe-Val-Phe-NPhe-Ala-Leu-Lys as substrate by spectrophotometry.
Series [3] is described as follows: Inhibition of Plasmodium ovale PLM4 using Lys-Glu-Phe-Val-Phe-NPhe-Ala-Leu-Lys as substrate by spectrophotometry.
A short description of series [4]: Inhibition of Plasmodium vivax PLM4 using Lys-Glu-Phe-Val-Phe-NPhe-Ala-Leu-Lys as substrate by spectrophotometry.
Series [5] deals with Plasmodium falciparum. Description: microbe, parasite or virus in culture. The conditions noted are these: D10, 72 h.
Description: Antiplasmodial activity against chloroquine-sensitive Plasmodium falciparum D10 after 72 hrs by parasite lactate dehydrogenase assay
In series [6] the test system is Plasmodium falciparum. The experiment in a line: microbe, parasite or virus in culture. The conditions noted are these: W2, 72 h.
Description: Antiplasmodial activity against chloroquine-resistant Plasmodium falciparum W2 after 72 hrs by parasite lactate dehydrogenase assay
In the next series the target is Cathepsin D (Homo sapiens, UniProt P07339). The experiment in a line: Inhibition of human cathepsin D.
Cathepsin D, sequence (P07339 65-162 limits assumed): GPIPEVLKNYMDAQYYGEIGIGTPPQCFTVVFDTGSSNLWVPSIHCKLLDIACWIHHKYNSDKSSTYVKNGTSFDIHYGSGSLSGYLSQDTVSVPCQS
Cathepsin D, sequence (P07339 169-412 limits assumed): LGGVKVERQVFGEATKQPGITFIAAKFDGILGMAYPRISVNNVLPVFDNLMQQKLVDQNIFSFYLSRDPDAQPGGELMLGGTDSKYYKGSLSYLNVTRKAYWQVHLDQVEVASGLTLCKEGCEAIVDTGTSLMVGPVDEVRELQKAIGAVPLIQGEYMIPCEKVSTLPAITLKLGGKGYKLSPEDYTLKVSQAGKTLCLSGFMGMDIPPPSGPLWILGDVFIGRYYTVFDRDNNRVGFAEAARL
Series [7] deals with Plasmodium falciparum. The experiment in a line: Antiplasmodial activity against chloroquine-sensitive Plasmodium falciparum D10. In kind it is functional, organism-based.
In series [8] the test system is Plasmodium falciparum. The experiment in a line: Antiplasmodial activity against chloroquine-resistant Plasmodium falciparum W2. The series is classed as functional, organism-based.
The nature of series [9]: Cytotoxicity against human HDF at 100 uM. The following applies: HDF cells, read-out: INH.

Some results are limits rather than exact numbers.

Plasmepsin II, sequence (P46925 whole entry): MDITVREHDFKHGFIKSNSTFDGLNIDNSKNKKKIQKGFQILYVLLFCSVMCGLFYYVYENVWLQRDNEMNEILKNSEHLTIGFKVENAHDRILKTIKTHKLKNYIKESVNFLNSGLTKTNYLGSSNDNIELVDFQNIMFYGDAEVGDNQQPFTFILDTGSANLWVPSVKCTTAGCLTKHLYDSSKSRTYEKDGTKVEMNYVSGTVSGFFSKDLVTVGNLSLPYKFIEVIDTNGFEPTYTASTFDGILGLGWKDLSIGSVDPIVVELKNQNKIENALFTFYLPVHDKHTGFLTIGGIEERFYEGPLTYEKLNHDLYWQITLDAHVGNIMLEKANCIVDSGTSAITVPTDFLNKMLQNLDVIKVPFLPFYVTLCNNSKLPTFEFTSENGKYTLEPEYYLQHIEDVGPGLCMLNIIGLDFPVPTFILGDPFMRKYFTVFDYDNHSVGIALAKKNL

As for `CCCCNC(=O)C[C@H](O)[C@H](CC(C)C)NC(=O)[C@@H](NC(=O)c1ccc(Oc2ccc(C(=O)NCc3ccccc3)cc2)cc1)[C@@H](C)CC`, the Ki came out at 1.3 nM at Plasmepsin II (read-out: Ki); 20 nM in series [1]; 5.8 nM in [2]; 1.1 nM in [3]; 19 nM in series [4]. Also, the 50% inhibitory concentration (IC50) in the series with Plasmodium falciparum [5] and in the series on Plasmodium falciparum [6] was more than 7000 nM each time.

`CC(C)C[C@H](NC(=O)OCc1ccccc1)C(=O)N[C@@H](C)C(=O)NCCCNc1ccnc2cc(Cl)ccc12`: the Ki result at Plasmepsin II is given as “Not Active”. Further, the concentration for half-maximal inhibition (IC50) stood at 197 nM with Plasmodium falciparum [5] and 1680 nM with Plasmodium falciparum [6].

Regarding `CCCCNC(=O)C[C@H](O)[C@H](CC(C)C)NC(=O)[C@@H](NC(=O)c1ccc(Oc2ccc(C(=O)OCc3ccccc3)cc2)cc1)[C@@H](C)CC`, the inhibition constant (Ki) is 1.9 nM at Plasmepsin II (read-out: Ki); 2.6 nM in series [1]; 2.1 nM in series [2]; 0.34 nM in [3]; 4.7 nM in [4]. In addition, the results for the IC50 with Plasmodium falciparum [5] and in the series on Plasmodium falciparum [6] were 3850 nM and 4680 nM, respectively.

Consider `CCCCNC(=O)C[C@H](O)[C@H](CC(C)C)NC(=O)[C@@H](NC(=O)c1ccc(Oc2ccc(C(=O)NCCCNc3ccnc4cc(Cl)ccc34)cc2)cc1)[C@@H](C)CC`, for which the Ki at Plasmepsin II (read-out: Ki) stood at 2.3 nM; in series [1] it was 5.4 nM; in series [2] it was 0.93 nM; in [3], 11 nM; in series [4] it was 0.7 nM. The IC50 at Cathepsin D was 220 nM; with Plasmodium falciparum [5], 177 nM; in the series on Plasmodium falciparum [6] it was 78 nM.

With `CCCCNC(=O)C[C@H](O)[C@H](CC(C)C)NC(=O)[C@@H](NC(=O)c1ccc(Oc2ccc(C(=O)N[C@@H](C)C(=O)NCCCNc3ccnc4cc(Cl)ccc34)cc2)cc1)[C@@H](C)CC`, the inhibition constant (Ki) came out at 3.8 nM on Plasmepsin II (read-out: Ki); 8.7 nM in [1]; 2.4 nM in series [2]; 8.5 nM in series [3]; 0.48 nM in [4]. In addition, the IC50 against Cathepsin D came out at 540 nM; in the series on Plasmodium falciparum [5] it was 114 nM; with Plasmodium falciparum [6] it was 64 nM.

With `CCCCNC(=O)C[C@H](O)[C@H](CC(C)C)NC(=O)[C@@H](NC(=O)c1ccc(Oc2ccc(C(=O)N[C@@H](CC(C)C)C(=O)N[C@@H](CCCCN)C(=O)NCCCC(C)Nc3cc(OC)cc4cccnc34)cc2)cc1)[C@@H](C)CC` (some centres not stated), the Ki at Plasmepsin II (read-out: Ki) worked out at 0.4 nM; in series [1], 0.5 nM; in series [2], 1.2 nM; in series [3] it was 10 nM; in series [4], 1.2 nM. Also, the IC50 with Plasmodium falciparum [7] is 400 nM; with Plasmodium falciparum [8], 400 nM; in the series with Plasmodium falciparum [5], 400 nM; in the series with Plasmodium falciparum [6] it was 700 nM. Also, the cytotoxicity at 100 µM in series [9] worked out at 50%.

Consider `CCCCNC(=O)C[C@H](O)[C@H](CC(C)C)NC(=O)[C@@H](NC(=O)c1ccc(Oc2ccc(C(=O)N[C@@H](CC(C)C)C(=O)N[C@@H](C)C(=O)NCCCNc3ccnc4ccccc34)cc2)cc1)[C@@H](C)CC`, for which the inhibition constant Ki at Plasmepsin II (read-out: Ki) came out at 2.6 nM; in series [1] it was 6.7 nM; in series [2], 0.87 nM; in [3] it was 8.1 nM; in series [4] it was 0.43 nM. The half-maximal inhibitory concentration (IC50) against Cathepsin D is 300 nM; with Plasmodium falciparum [5], 161 nM; in the series with Plasmodium falciparum [6], 474 nM.

On to `CCN(CC)CCCC(C)Nc1ccnc2cc(Cl)ccc12` (configuration not stated) [CHLOROQUINE], for which the inhibitory constant (Ki) entry on Plasmepsin II was “Not Active”.

By Ki is commonly meant the dissociation constant of the complex between target and ligand, obtained from inhibition or displacement. What is called IC50 is the concentration at which inhibition is half-maximal. A higher IC50 goes with a need for much substance.
